Test in all cases: relative viability (nuclei count vs DMSO), 5 days (fraction); higher = more cells survive
Compound in experiment [1]: O=C(CCCCCCNC(=O)c1cnc(N(c2ccccc2)c2ccccc2)nc1)NO [Ricolinostat] + Nc1ncn([C@H]2C[C@H](O)[C@@H](CO)O2)c(=O)n1 [Decitabine] (partner 2 µM)
In a few lines: (§1)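 Lung cancer cell lines were pin-tool dosed in 1536-well plates on the day after seeding, with either a lone drug or a fixed anchor-drug dose plus five library-drug doses (not always all listed) in √10 steps. Nuclei were counted on 4× images after 5 days. Relative viability is the ratio of treated-well to vehicle-well nuclei counts, with each value a median of duplicate plates.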

Compound in experiment [2]: C1=CC=C(C(=C1)C2=CC=C(C=C2)C3=CSC4=C3C(=C(C(=O)N4)C#N)O)O + O=C(c1cc(Cc2n[nH]c(=O)c3ccccc23)ccc1F)N1CCN(C(=O)C2CC2)CC1 [Olaparib] (partner 8 µM)
In a few lines:
as §1

Compound in the experiment “TGX 221 + Foretinib”: CC1=CN2C(=O)C=C(N=C2C(=C1)C(C)NC3=CC=CC=C3)N4CCOCC4 [TGX 221] + COc1cc2c(Oc3ccc(NC(=O)C4(C(=O)Nc5ccc(F)cc5)CC4)cc3F)ccnc2cc1OCCCN1CCOCC1 [Foretinib] (partner 0.25 µM)
In a few lines: as §1

Compound in the experiment “TGX 221 + Palbociclib”: CC1=CN2C(=O)C=C(N=C2C(=C1)C(C)NC3=CC=CC=C3)N4CCOCC4 [TGX 221] + CC(=O)c1c(C)c2cnc(Nc3ccc(N4CCNCC4)cn3)nc2n(C2CCCC2)c1=O [Palbociclib] (partner 0.5 µM)
The essentials: as §1

For HCC-366, the relative viability stood at 0.332 in experiment [1] (first compound 0.08 µM); 0.344 in experiment [1] (first compound 0.253 µM); 0.342 in experiment [1] (first compound 0.8 µM); 0.329 in experiment [1] (first compound 2.53 µM); 0.384 in experiment [2] (first compound 0.253 µM); 0.369 in experiment [2] (first compound 0.8 µM). The relative viability came out at 0.41 in experiment [2] (first compound 2.53 µM); 0.302 in experiment [2] (first compound 8 µM); 0.844 in the experiment with TGX 221 + Foretinib (first compound 0.08 µM); 0.892 in the experiment with TGX 221 + Foretinib (first compound 0.253 µM); 0.96 with TGX 221 + Foretinib (first compound 0.8 µM); 0.902 with TGX 221 + Foretinib (first compound 2.53 µM). The relative viability was found to be 0.813 with TGX 221 + Foretinib (first compound 8 µM); 0.387 with TGX 221 + Palbociclib (first compound 0.08 µM); 0.358 in the experiment with TGX 221 + Palbociclib (first compound 0.253 µM); 0.418 in the experiment with TGX 221 + Palbociclib (first compound 0.8 µM); 0.368 in the experiment with TGX 221 + Palbociclib (first compound 2.53 µM); 0.297 with TGX 221 + Palbociclib (first compound 8 µM).

As for SW 900, the relative viability in experiment [1] (first compound 0.08 µM) was 0.517; in experiment [1] (first compound 0.253 µM) it was 0.433; in experiment [1] (first compound 0.8 µM), 0.368; in experiment [1] (first compound 2.53 µM), 0.401; in experiment [2] (first compound 0.253 µM), 1.13; in experiment [2] (first compound 0.8 µM) it was 0.869. The relative viability was 0.903 in experiment [2] (first compound 2.53 µM); 0.839 in experiment [2] (first compound 8 µM); 0.682 with TGX 221 + Foretinib (first compound 0.08 µM); 0.651 with TGX 221 + Foretinib (first compound 0.253 µM); 0.788 with TGX 221 + Foretinib (first compound 0.8 µM); 0.546 with TGX 221 + Foretinib (first compound 2.53 µM). The relative viability is 0.726 in the experiment with TGX 221 + Foretinib (first compound 8 µM); 0.429 with TGX 221 + Palbociclib (first compound 0.253 µM); 0.427 with TGX 221 + Palbociclib (first compound 0.8 µM); 0.356 in the experiment with TGX 221 + Palbociclib (first compound 2.53 µM); 0.295 with TGX 221 + Palbociclib (first compound 8 µM).

Consider SW 1573, for which the relative viability in experiment [1] (first compound 0.08 µM) turned out to be 0.487; in experiment [1] (first compound 0.253 µM), 0.496; in experiment [1] (first compound 0.8 µM), 0.546; in experiment [1] (first compound 2.53 µM), 0.416; in experiment [2] (first compound 0.08 µM), 0.51; in experiment [2] (first compound 0.253 µM), 0.464. Also, the relative viability in experiment [2] (first compound 0.8 µM) was 0.502; in experiment [2] (first compound 2.53 µM), 0.439; in experiment [2] (first compound 8 µM) it was 0.384; in the experiment with TGX 221 + Foretinib (first compound 0.08 µM), 0.889; in the experiment with TGX 221 + Foretinib (first compound 0.253 µM) it was 0.881; with TGX 221 + Foretinib (first compound 0.8 µM), 0.975. The relative viability with TGX 221 + Foretinib (first compound 2.53 µM) turned out to be 0.822; with TGX 221 + Foretinib (first compound 8 µM) it was 0.851; with TGX 221 + Palbociclib (first compound 0.08 µM), 0.299; with TGX 221 + Palbociclib (first compound 0.253 µM), 0.313; with TGX 221 + Palbociclib (first compound 0.8 µM), 0.39; with TGX 221 + Palbociclib (first compound 2.53 µM), 0.341. In addition, the relative viability with TGX 221 + Palbociclib (first compound 8 µM) was found to be 0.343.

Regarding SK-MES-1, the relative viability in experiment [1] (first compound 0.08 µM) turned out to be 0.402; in experiment [1] (first compound 0.253 µM), 0.384; in experiment [1] (first compound 0.8 µM) it was 0.344; in experiment [1] (first compound 2.53 µM), 0.375; in experiment [2] (first compound 0.08 µM), 0.863; in experiment [2] (first compound 0.253 µM), 0.816. Further, the relative viability was determined as 0.858 in experiment [2] (first compound 0.8 µM); 0.651 in experiment [2] (first compound 2.53 µM); 0.611 in experiment [2] (first compound 8 µM); 0.994 with TGX 221 + Foretinib (first compound 0.08 µM); 0.733 with TGX 221 + Foretinib (first compound 0.253 µM); 0.863 with TGX 221 + Foretinib (first compound 0.8 µM). Moreover, the relative viability was determined as 0.75 in the experiment with TGX 221 + Foretinib (first compound 2.53 µM); 0.558 with TGX 221 + Foretinib (first compound 8 µM); 0.304 with TGX 221 + Palbociclib (first compound 0.08 µM); 0.336 in the experiment with TGX 221 + Palbociclib (first compound 0.253 µM); 0.308 in the experiment with TGX 221 + Palbociclib (first compound 0.8 µM); 0.287 in the experiment with TGX 221 + Palbociclib (first compound 2.53 µM). Besides, the relative viability with TGX 221 + Palbociclib (first compound 8 µM) was 0.323.

For HCC-827, the relative viability in experiment [1] (first compound 0.08 µM) came to 0.32; in experiment [1] (first compound 0.253 µM), 0.327; in experiment [1] (first compound 0.8 µM), 0.233; in experiment [1] (first compound 2.53 µM), 0.274; in experiment [2] (first compound 0.08 µM), 0.739; in experiment [2] (first compound 0.253 µM) it was 0.65. The relative viability turned out to be 0.59 in experiment [2] (first compound 0.8 µM); 0.662 in experiment [2] (first compound 2.53 µM); 0.622 in experiment [2] (first compound 8 µM); 1.08 with TGX 221 + Foretinib (first compound 0.08 µM); 1.08 in the experiment with TGX 221 + Foretinib (first compound 0.253 µM); 1.07 with TGX 221 + Foretinib (first compound 0.8 µM). In addition, the relative viability with TGX 221 + Foretinib (first compound 2.53 µM) turned out to be 0.927; with TGX 221 + Foretinib (first compound 8 µM), 0.904; in the experiment with TGX 221 + Palbociclib (first compound 0.08 µM), 0.489; with TGX 221 + Palbociclib (first compound 0.253 µM), 0.468; with TGX 221 + Palbociclib (first compound 0.8 µM), 0.487; with TGX 221 + Palbociclib (first compound 2.53 µM), 0.436. Besides, in the experiment with TGX 221 + Palbociclib (first compound 8 µM), the relative viability was found to be 0.425.

Take EMC-BAC-2: the relative viability in experiment [1] (first compound 0.08 µM) was 0.796; in experiment [1] (first compound 0.253 µM) it was 0.938; in experiment [1] (first compound 0.8 µM), 0.901; in experiment [1] (first compound 2.53 µM), 0.722; in experiment [2] (first compound 0.08 µM) it was 0.48; in experiment [2] (first compound 0.253 µM), 0.58. In addition, the relative viability was 0.438 in experiment [2] (first compound 0.8 µM); 0.484 in experiment [2] (first compound 2.53 µM); 0.496 in experiment [2] (first compound 8 µM); 1.03 with TGX 221 + Foretinib (first compound 0.08 µM); 0.882 with TGX 221 + Foretinib (first compound 0.253 µM); 0.882 with TGX 221 + Foretinib (first compound 0.8 µM). Further, the relative viability was found to be 0.903 with TGX 221 + Foretinib (first compound 2.53 µM); 0.773 with TGX 221 + Foretinib (first compound 8 µM); 0.493 in the experiment with TGX 221 + Palbociclib (first compound 0.08 µM); 0.492 in the experiment with TGX 221 + Palbociclib (first compound 0.253 µM); 0.51 with TGX 221 + Palbociclib (first compound 0.8 µM); 0.547 in the experiment with TGX 221 + Palbociclib (first compound 2.53 µM). Moreover, the relative viability in the experiment with TGX 221 + Palbociclib (first compound 8 µM) stood at 0.439.

Turning to NCI-H2023, the relative viability was 0.234 in experiment [1] (first compound 0.08 µM); 0.233 in experiment [1] (first compound 0.253 µM); 0.227 in experiment [1] (first compound 0.8 µM); 0.204 in experiment [1] (first compound 2.53 µM); 0.467 in experiment [2] (first compound 0.08 µM); 0.49 in experiment [2] (first compound 0.253 µM). Moreover, the relative viability in experiment [2] (first compound 0.8 µM) turned out to be 0.495; in experiment [2] (first compound 2.53 µM), 0.487; in experiment [2] (first compound 8 µM), 0.607; in the experiment with TGX 221 + Foretinib (first compound 0.08 µM), 0.879; in the experiment with TGX 221 + Foretinib (first compound 0.253 µM), 0.584; with TGX 221 + Foretinib (first compound 0.8 µM), 0.797. In addition, the relative viability in the experiment with TGX 221 + Foretinib (first compound 2.53 µM) turned out to be 0.724; in the experiment with TGX 221 + Foretinib (first compound 8 µM) it was 0.445; with TGX 221 + Palbociclib (first compound 0.08 µM), 0.328; with TGX 221 + Palbociclib (first compound 0.253 µM) it was 0.337; with TGX 221 + Palbociclib (first compound 0.8 µM), 0.269; with TGX 221 + Palbociclib (first compound 2.53 µM), 0.342. Besides, in the experiment with TGX 221 + Palbociclib (first compound 8 µM), the relative viability amounted to 0.212.

(Values after the supplement of paper PMC10307832.)
